In patent publication US6080746A, “Methods and compositions for the prophylaxis and treatment of cytomegalovirus infections” (priority 1991, dated 2000):
In brackets after ≈: the same amount, converted by molar mass. Where two headings read alike, the source gives them in different places.

Tests used:
[1] = tested on: cytomegalovirus; conditions: cited from earlier work; for treatment of cytomegalovirus retinitis: Rosecan et al. 1986 / reported
[2] = tested on: HCMV; test: Virus yield-reduction assay, combination with papaverine on HCMV replication in MRC5 cells (Table 3); type: cell-based, human CMV
Text: The following results were obtained in testing mixtures of racemic 2'-CdG and papaverine under the same conditions:
Effect of Combination Treatment^a With Papaverine and
(±)-2'-CDG and on HCMV Replication in MRC5 Cells
(§1) (Virus Yield-Reduction Assay)
(§2) ^a Drug treatment began immediately following the virus adsorption

[3] = tested on: human cytomegalovirus (strain AD 169); test: Inhibition of human cytomegalovirus in MRC5 cells by plaque reduction assay (reduction of CPE, MIC50; Table 1); type: cell-based; conditions: for inhibition at 0.032 µg/mL: 0.032 μg/ml; for inhibition at 0.1 µg/mL: 0.1 μg/ml
Text: (§3) In each case, drug treatment began 0 hr. postinfection.

[4] = tested on: human cytomegalovirus (strain AD 169); test: CMV yield in MRC5 cells (Table 1); type: cell-based
Text: as §3

[5] = tested on: CMV; test: CMV yields in MRC5 cell monolayer cultures by plaque assay (Tables 4 and 5); type: cell-based; conditions: virus control 5.5
Protocol: (§4) The effectiveness of racemic 2'-CdG and of D-2'-CdG on CMV yields in MRC5 cell monolayer cultures was determined by a plaque assay with the results set forth in Tables 4 and 5:
as §2
(§5) ^a Drug treatment began immediately following the 1 1/2 hour

[6] = tested on: HCMV; test: Virus yield-reduction assay, combination with DHPG on HCMV replication in MRC5 cells (Table 2); type: cell-based, human CMV; conditions: DHPG 0
Text: Effect of Combination Treatment^a With (±)-2'-CDG and
DHPG on HCMV Replication in MRC5 Cells
as §1

[7] = tested on: CMV; test: MIC50 against CMV in MRC5 cells; type: cell-based; conditions: Human betaherpesvirus 5
[8] = tested on: MRC5 cells; test: Drug cytotoxicity (gross morphology) in MRC5 cell monolayer cultures (Tables 4 and 5); type: cell-based, human
Protocol: as §4, §2, §5

[9] = tested on: human diploid embryonic lung cells (MRC5); test: Drug cytotoxicity (gross morphology) in MRC5 cells (Table 1)
Text: Also evaluated under the same conditions were prior art drugs Ara-A and ganciclovir (DHPG). In each case, drug treatment began 0 hr. postinfection.

[10] = tested on: CMV; test: Reduction of CPE in CMV-infected MRC5 cell monolayer cultures (Tables 4 and 5); type: cell-based; conditions: Human betaherpesvirus 5, MRC5, read-out: Reduction (%) of CPE by CDG at Time of Harvest
Protocol: as §4, §2, §5

[11] = tested on: human CMV; test: Plaque reduction assay against human CMV (ED50); type: cell-based
[12] = 0.1 μg/ml, virus control 5.5 (DHPG 5.3)
[13] = 0.32 μg/ml, virus control 5.5 (DHPG 5.3)
[14] = 1.0 μg/ml, virus control 5.5 (DHPG 5.3)
[15] = 3.2 μg/ml, virus control 5.5 (DHPG 5.3)
[16] = 10 μg/ml, virus control 5.5 (DHPG 5.3)
[17] = Human betaherpesvirus 5, MRC5, treatment 0 hr postinfection, read-out: Reduction (%) of CPE at Time of Harvest
[18] = Human betaherpesvirus 5, 0.32 μg/ml, MRC5, treatment 0 hr postinfection, read-out: Reduction (%) of CPE at Time of Harvest
[19] = Human betaherpesvirus 5, 1.0 μg/ml, MRC5, treatment 0 hr postinfection, read-out: Reduction (%) of CPE at Time of Harvest
[20] = Human betaherpesvirus 5, 3.2 μg/ml, MRC5, treatment 0 hr postinfection, read-out: Reduction (%) of CPE at Time of Harvest
[21] = Human betaherpesvirus 5, 10 μg/ml, MRC5, treatment 0 hr postinfection, read-out: Reduction (%) of CPE at Time of Harvest
[22] = Human betaherpesvirus 5, MRC5, 0 h, read-out: Reduction (%) of CPE at Time of Harvest

## alpha-interferon
[1]
  treatment of cytomegalovirus retinitis: unsuccessful

## COc1ccc(Cc2nccc3cc(OC)c(OC)cc23)cc1OC [Papaverine, reference compound]
[2]; (±)-2'-CDG 0, papaverine (DHPG) 1.0 μM
  Reduction in CMV Yield: 0 Log10 PFU/ML
[2]; (±)-2'-CDG 0, papaverine (DHPG) 3.2 μM
  Reduction in CMV Yield: 0.2 Log10 PFU/ML
[2]; (±)-2'-CDG 0, papaverine (DHPG) 10.0 μM
  Reduction in CMV Yield: 0.6 Log10 PFU/ML
[2]; (±)-2'-CDG 0, papaverine (DHPG) 32.0 μM
  Reduction in CMV Yield: 1.4 Log10 PFU/ML

## Nc1nc(N)c2ncn([C@@H]3C[C@H](CO)[C@@H](O)[C@H]3O)c2n1 (relative stereo) [DAPR]
[3]; Human betaherpesvirus 5, MRC5, tested under the same conditions as Table 1
  IC50: 8.7 µg/mL (≈ 31 µM)
[3]; tested under the same conditions as Table 1
  therapeutic index: 40

## Nc1nc2c(ncn2[C@@H]2C[C@H](CO)[C@@H](O)C2)c(=O)[nH]1 (relative stereo) [±2'-CdG]
[4]; 0.032 μg/ml, virus control 5.5
  CMV Yield: 5.4 log10 CCID50 /ml
[4]; [12]
  CMV Yield: 5.0 log10 CCID50 /ml
[4]; [13]
  CMV Yield: 4.5 log10 CCID50 /ml
[4]; [14]
  CMV Yield: 3.6 log10 CCID50 /ml
[4]; [15]
  CMV Yield: 1.0 log10 CCID50 /ml
[4]; [16]
  CMV Yield: 0 log10 CCID50 /ml
[2]; (±)-2'-CDG 0.32 (mM as printed), papaverine (DHPG) 0
  Reduction in CMV Yield: 0.7 Log10 PFU/ML
[2]; (±)-2'-CDG 1.0 (mM as printed), papaverine (DHPG) 0
  Reduction in CMV Yield: 1.0 Log10 PFU/ML
[2]; (±)-2'-CDG 3.2 (mM as printed), papaverine (DHPG) 0
  Reduction in CMV Yield: 1.7 Log10 PFU/ML
[2]; (±)-2'-CDG 10.0 (mM as printed), papaverine (DHPG) 0
  Reduction in CMV Yield: 2.7 Log10 PFU/ML
[3]; [17]
  inhibition at 0.032 µg/mL: 0%
  inhibition at 0.1 µg/mL: 0%
[3]; [18]
  inhibition at 0.32 µg/mL: 20%
[3]; [19]
  inhibition at 1 µg/mL: 95%
[3]; [20]
  inhibition at 3.2 µg/mL: 100%
[3]; [21]
  inhibition at 10 µg/mL: 100%
[5]; Table 4, 0.032 μg/mL
  CMV Yield: 5.4 log10 CCID50 /mL
[5]; Table 4, 0.1 μg/mL
  CMV Yield: 5.0 log10 CCID50 /mL
[5]; Table 4, 0.32 μg/mL
  CMV Yield: 4.5 log10 CCID50 /mL
[5]; Table 4, 1.0 μg/mL
  CMV Yield: 3.6 log10 CCID50 /mL
[5]; Table 4, 3.2 μg/mL
  CMV Yield: 1.0 log10 CCID50 /mL
[5]; Table 4, 10 μg/mL
  CMV Yield: 0 log10 CCID50 /mL
[6]; (±)-2'-CDG 0.1 (mM as printed)
  Reduction in CMV Yield: 0.1 Log10 PFU/ML
[6]; (±)-2'-CDG 0.32 (mM as printed)
  Reduction in CMV Yield: 0.5 Log10 PFU/ML
[6]; (±)-2'-CDG 1.0 (mM as printed)
  Reduction in CMV Yield: 0.6 Log10 PFU/ML
[6]; (±)-2'-CDG 3.2 (mM as printed)
  Reduction in CMV Yield: 1.0 Log10 PFU/ML
[7]
  IC50: 0.069 µg/mL (≈ 0.26 µM)
[8]; Table 4, 0.032 μg/mL
  Drug Cytotoxicity (gross morphology): 0
[8]; Table 4, 0.1 μg/mL
  Drug Cytotoxicity (gross morphology): 0
[8]; Table 4, 0.32 μg/mL
  Drug Cytotoxicity (gross morphology): 0
[8]; Table 4, 1.0 μg/mL
  Drug Cytotoxicity (gross morphology): 0
[8]; Table 4, 3.2 μg/mL
  Drug Cytotoxicity (gross morphology): v. sl.
[8]; Table 4, 10 μg/mL
  Drug Cytotoxicity (gross morphology): sl. toxicity
[8]; Table 4, 32 μg/mL
  Drug Cytotoxicity (gross morphology): toxic
[9]; 0.032 μg/ml
  Drug Cytotoxicity (gross morphology): 0
[9]; 0.1 μg/ml
  Drug Cytotoxicity (gross morphology): 0
[9]; 0.32 μg/ml
  Drug Cytotoxicity (gross morphology): 0
[9]; 1.0 μg/ml
  Drug Cytotoxicity (gross morphology): 0
[9]; 3.2 μg/ml
  Drug Cytotoxicity (gross morphology): v. sl. toxic
[9]; 10 μg/ml
  Drug Cytotoxicity (gross morphology): sl. toxic
[9]; 32 μg/ml
  Drug Cytotoxicity (gross morphology): toxic
[10]; Table 4, 0.032 μg/mL
  inhibition at 0.032 µg/mL: 0%
[10]; Table 4, 0.1 μg/mL
  inhibition at 0.1 µg/mL: 0%
[10]; Table 4, 0.32 μg/mL
  inhibition at 0.32 µg/mL: 20%
[10]; Table 4, 1.0 μg/mL
  inhibition at 1 µg/mL: 95%
[10]; Table 4, 3.2 μg/mL
  inhibition at 3.2 µg/mL: 100%
[10]; Table 4, 10 μg/mL
  inhibition at 10 µg/mL: 100%

## Nc1nc(N)c2ncn([C@@H]3C[C@H](CO)[C@@H](O)C3)c2n1 (relative stereo) [±C-2,6'-DAPdR]
[4]; 0.032 μg/ml, virus control 5.5
  CMV Yield: 5.3 log10 CCID50 /ml
[4]; [12]
  CMV Yield: 5.0 log10 CCID50 /ml
[4]; [13]
  CMV Yield: 4.0 log10 CCID50 /ml
[4]; [14]
  CMV Yield: 3.4 log10 CCID50 /ml
[4]; [15]
  CMV Yield: 0 log10 CCID50 /ml
[4]; [16]
  CMV Yield: 0 log10 CCID50 /ml
[3]; [17]
  inhibition at 0.032 µg/mL: 0%
  inhibition at 0.1 µg/mL: 0%
[3]; [18]
  inhibition at 0.32 µg/mL: 25%
[3]; [19]
  inhibition at 1 µg/mL: 95%
[3]; [20]
  inhibition at 3.2 µg/mL: 100%
[3]; [21]
  inhibition at 10 µg/mL: 100%
[9]; 0.032 μg/ml
  Drug Cytotoxicity (gross morphology): 0
[9]; 0.1 μg/ml
  Drug Cytotoxicity (gross morphology): 0
[9]; 0.32 μg/ml
  Drug Cytotoxicity (gross morphology): 0
[9]; 1.0 μg/ml
  Drug Cytotoxicity (gross morphology): 0
[9]; 3.2 μg/ml
  Drug Cytotoxicity (gross morphology): v. sl. toxic
[9]; 10 μg/ml
  Drug Cytotoxicity (gross morphology): sl. toxic
[9]; 32 μg/ml
  Drug Cytotoxicity (gross morphology): toxic

## CCCCC(=O)OC[C@H]1O[C@@H](n2cnc3c(=O)[nH]c(N)nc32)C[C@@H]1O [D-2'-deoxyguanosine-5'-0-valerate]
[11]
  ED50: 0.09 µg/mL (≈ 0.256 µM)

## Nc1nc2c(ncn2COCCO)c(=O)[nH]1 [acyclovir]
[1]; CMV retinitis, reported
  activity against CMV retinitis: ineffective
[1]
  treatment of cytomegalovirus retinitis: unsuccessful
[1]; established systemic CMV infections, reported
  activity against established systemic CMV infections: ineffective

## Nc1ncnc2c1ncn2[C@@H]1O[C@H](CO)[C@@H](O)[C@@H]1O [Ara-A, reference compound]
[4]; [13]
  CMV Yield: 5.2 log10 CCID50 /ml
[4]; [14]
  CMV Yield: 4.9 log10 CCID50 /ml
[4]; [15]
  CMV Yield: 4.7 log10 CCID50 /ml
[4]; [16]
  CMV Yield: 3.4 log10 CCID50 /ml
[4]; 32 μg/ml, virus control 5.5 (DHPG 5.3)
  CMV Yield: 0.6 log10 CCID50 /ml
[4]; 100 μg/ml, virus control 5.5 (DHPG 5.3)
  CMV Yield: 0 log10 CCID50 /ml
[3]; [22]
  inhibition at 0.32 µg/mL: 0%
  inhibition at 1 µg/mL: 0%
  inhibition at 3.2 µg/mL: 5%
  inhibition at 10 µg/mL: 90%
  inhibition at 32 µg/mL: > 95%
  inhibition at 100 µg/mL: 100%
[9]; 0.32 μg/ml
  Drug Cytotoxicity (gross morphology): 0
[9]; 1.0 μg/ml
  Drug Cytotoxicity (gross morphology): 0
[9]; 3.2 μg/ml
  Drug Cytotoxicity (gross morphology): 0
[9]; 10 μg/ml
  Drug Cytotoxicity (gross morphology): 0
[1]
  treatment of cytomegalovirus retinitis: unsuccessful

## CC(C)C(=O)OC[C@H]1O[C@@H](n2cnc3c(=O)[nH]c(N)nc32)C[C@@H]1OC(=O)C(C)C (racemic) [racemic 2'-deoxyguanosine-3',5'-0-diisobutyrate, 2'-deoxyguanosine-3',5'-0-diisobutyrate]
[11]
  ED50: 3.9 µg/mL (≈ 9.57 µM)
